The target in series [1] is T1, TDP1 (Homo sapiens, UniProt Q9NUW8).
T1 construct: made in house; host or cells: E. coli
The series can be described thus: Fluorescence anisotropy assay of TDP1-DNA substrate complex. The note with it: 3 nM single-strand oligonucleotide without quencher, 50 nM TDP1. It counts as binding. How it is done: Fluorescence anisotropy was measured by using a fluorescent single-strand DNA-oligonucleotide (3 nM) without quencher at the 3′-end in the presence of the inhibitor in different concentrations (Fluorescein control, CFlu = 10^−9 M). Reaction mixtures (200 µl) contained TDP1 buffer (50 mM Tris-HCl, pH 8.0, 50 mM NaCl, 7 mM β-mercaptoethanol), a single-strand DNA-oligonucleotide without quencher (3 nM substrate of TDP1), a testable inhibitor and the purified TDP1 (50 nM). The reactions were incubated at a constant temperature of 26 °C in a POLARstar OPTIMA fluorimeter, BMG LABTECH, GmbH, to measure fluorescence anisotropy every 55 s (Ex482/Em530 nm) during the linear phase (from 0 to 8 min) in two independent experiments.
Fluorescence anisotropy (r) was calculated by using the Equation (1): (1) r = (III–I⊥)/(III+ 2I⊥)
The dependence of the anisotropy on the concentration of the inhibitor was determined using a six-point response curve in two independent experiments and calculated using MARS Data Analysis 2.0 (BMG LABTECH).
To obtain some information about interaction of disaccharide nucleosides with TDP1, anisotropy of the fluorescent DNA substrate was measured. We used single-stranded oligonucleotide without a quencher at the 3′-end in the presence of testable inhibitors at different concentrations.

Series [2] addresses T1, TDP1. The series can be described thus: Steady-state kinetic analysis of TDP1 reaction, single-stranded substrate. The conditions noted are these: for Ki: Cornish-Bowden method, read-out: Inhibition constant, KI. It counts as biochemical. How it is done: (§1) To determine the kinetic parameters: apparent maximum rate of enzymatic reaction (Vmax), Michaelis constant (KM), constant of inhibition (KI), and possible inhibition mechanism, steady-state kinetic experiments were carried out at five fixed concentrations of substrate with variation of inhibitor concentrations. The standard reaction mixtures (200 μl) contained 50 nM, 100 nM, 200 nM, 500 nM or 1000 nM substrate, testable inhibitor, 1.5 nM recombinant human TDP1 and reaction buffer components (50 mM Tris-HCl, pH 8.0, 50 mM NaCl, 7 mM β-mercaptoethanol). After addition of the enzyme, the reaction mixtures were incubated at a constant temperature of 26 °C and measured in a POLARstar OPTIMA fluorimeter, BMG LABTECH, GmbH, to measure fluorescence every 55 s (Ex485/Em520 nm) during the linear phase (data from 0 to 8 min). The initial data (kinetic curves) were obtained in three independent experiments and statistically processed in software OriginPro 8.6.0.
Vmax and KM decrease proportionally (Figure 6(A,B)), which corresponds to the uncompetitive type of inhibition, according to the general equation of the rate of product formation in the Michaelis–Menten kinetics.
(§2) Values of the inhibition constant (KI) were determined using Cornish–Bowden method. Similar experiments were performed for all seven tested inhibitors on two types of DNA substrates, and the results are shown in Table 4.

Series [3] concerns A-549 cell line (adenocarcinomic human alveolar basal epithelial cells). The series is described as follows: MTT test, cytotoxicity and combination with topotecan, A-549. Type of series: cell-based. The note with it: A-549 cells; for Synergistic coefficient (SC) with topotecan: MTT, inhibitor in combination with topotecan, SC < 1 indicates synergy; for Effect on cytotoxic effect of topotecan (in words): non-toxic inhibitor concentrations. How it is done: (§3) Tumour cell line A549 (adenocarcinomic human alveolar basal epithelial cells) and noncancerous cell line WI-38 (fibroblasts derived from lung tissue of a 3 months gestation […] fetus) were used in cell-based experiments to determine the cytotoxicity of inhibitors and their effect on antitumour drug topotecan using standard MTT test[48]. Cells were incubated in Iscove’s Modified Dulbecco’s Medium (IMDM) supplemented with 10% fetal bovine serum and 40 µg/ml gentamicin, 10 U/ml penicillin, […], 0.25 µg/ml amphotericin at 37 °C and 5% CO2 for 24 h in a CO2 incubator; the optical density of the final solution was measured in the wells of the microplate at 570 nm and 620 nm wavelengths using a MultiScan FC (Thermo Scientific) microplate reader.
(§4) To study the effect of inhibitors on the cytotoxic effect of a well-known antitumour drug, the topotecan of the manufacturer “ACTAVIS GROUP PTC ehf.” was used. First of all, the 50% cytotoxic concentration (CC50) for topotecan and each inhibitor were determined to produce a defined single-agent effect. Second, three independent MTT-tests were performed with each inhibitor in combination with topotecan. Then, the synergistic coefficient (SC) was calculated according to the following formula (2)[49]: (2) SC= CC50 tpc,(+I)/CC50 tpc+CC50 I, (+tpc)/CC50 I,
(§5) CC50 tpc,(+I) and CC50 I,(+tpc) are the concentrations of topotecan and inhibitor used in combination to achieve 50% drug effect. CC50 tpc and CC50 I are the concentrations for single agents to achieve the same effect. SC values of less than, equal to, or more than 1 indicates synergy, additivity, and antagonism, respectively. The results were calculated and statistically processed in Microsoft Excel.

The test system of series [4] is WI-38 cell line (noncancerous fibroblasts derived from lung tissue). The series can be described thus: MTT test, cytotoxicity and combination with topotecan, WI-38. It counts as cell-based, human. The conditions noted are these: WI-38 non-cancerous cell line. On the procedure: as §3, §4, §5
Series [5] addresses T1, TDP1. The series is described as follows: Steady-state kinetic analysis of TDP1 reaction, double-stranded (hairpin) substrate. Type of series: biochemical. The note with it: for Ki: Cornish-Bowden method, read-out: Inhibition constant, KI. How it is done:
as §1, §2

In series [6] the target is T2, SCAN1 (mutant form of TDP1 with H493R substitution) (Homo sapiens, UniProt Q9NUW8, H493R).
T2 construct: made in house; host or cells: E. coli
The series is described as follows: Fluorescence real-time assay on mutant TDP1 (SCAN1), single-stranded oligonucleotide. It counts as biochemical. The text has this: The recombinant tyrosyl-DNA phosphodiesterase 1 and the mutant form of TDP1 with substitution (H493R) were expressed in the E. coli system (plasmids pET16B-TDP1 and pET16B-SCAN1 were provided by Dr. K.W. Caldecott, University of Sussex, United Kingdom and by Dr. S. El-Khamisy, University of Sheffield, United Kingdom) and purified according to the previously described technique.
(§6) Conditions and details for our real-time detection of TDP1 activity using the single-stranded and hairpin fluorescent biosensors were reported in our previous work[47]. Briefly, the approach consists in fluorescence intensity measurement of the reaction of quencher removal from the fluorophore-quencher coupled DNA-oligonucleotide catalysed by TDP1 in the presence of inhibitor and in the absence of it (the control samples contained 1% DMSO). Reaction mixtures (200 µl) contained TDP1 buffer (50 mM Tris-HCl, pH 8.0, 50 mM NaCl, 7 mM β-mercaptoethanol), oligonucleotide (50 nM substrate of TDP1), testable inhibitor and purified TDP1 (1.5 nM). The reactions were incubated at a constant temperature of 26 °C in a POLARstar OPTIMA fluorimeter, BMG LABTECH, GmbH, to measure fluorescence every 55 s (Ex485/Em520 nm) during the linear phase (here data from 0 to 8 min). The average values of half maximal inhibitory concentration (IC50) were determined using an eleven-point concentration response curve in three independent experiments and calculated using MARS Data Analysis 2.0 (BMG LABTECH).
The IC50 values obtained by the fluorescence real-time assay on a single-stranded oligonucleotide (section 3.1) were higher than 100 μM.

For a further series, the system named is PARP1. Also noted: method as in PMID 24079274. The note with it: cited from earlier work.
The target in series [7] is T1, TDP1. The series can be described thus: Real-time fluorescence detection of TDP1 activity, single-stranded FAM/BHQ biosensor. It counts as biochemical. The note with it: for Inhibitory effect on TDP1 activity (in words): single-stranded fluorescent biosensor, primary screening. On the procedure:
as §6
To discover inhibitors of TDP1 we recently developed original single-stranded and hairpin fluorophore–quencher coupled DNA-biosensors for real-time measurement of TDP1 cleavage activity. The single-stranded substrate is a 16-mer oligonucleotide containing both 5′-FAM fluorophore donor and a quenching 3′-BHQ moiety (Figure 1(A)). When the quencher is removed by TDP1, the fluorescence intensity increases and can be measured by fluorimeter (TDP1 catalysed reaction on biosensor is shown in Figure 3(A). Fluorescence intensity declines in the presence of inhibitor, the resulting curves of the dependence of TDP1 residual activity as a function of the concentration of inhibitors were obtained using 4-parameter logistic regression fit, which was used to calculate IC50 values[47]^,[58].
For primary screening, the effect of a large group of disaccharide nucleosides and their hydrophobic derivatives on human recombinant TDP1 activity has been evaluated by fluorescent method on a single-stranded substrate described above.

The structures appear in SMILES notation.

T2 sequence (Q9NUW8 whole entry H493R): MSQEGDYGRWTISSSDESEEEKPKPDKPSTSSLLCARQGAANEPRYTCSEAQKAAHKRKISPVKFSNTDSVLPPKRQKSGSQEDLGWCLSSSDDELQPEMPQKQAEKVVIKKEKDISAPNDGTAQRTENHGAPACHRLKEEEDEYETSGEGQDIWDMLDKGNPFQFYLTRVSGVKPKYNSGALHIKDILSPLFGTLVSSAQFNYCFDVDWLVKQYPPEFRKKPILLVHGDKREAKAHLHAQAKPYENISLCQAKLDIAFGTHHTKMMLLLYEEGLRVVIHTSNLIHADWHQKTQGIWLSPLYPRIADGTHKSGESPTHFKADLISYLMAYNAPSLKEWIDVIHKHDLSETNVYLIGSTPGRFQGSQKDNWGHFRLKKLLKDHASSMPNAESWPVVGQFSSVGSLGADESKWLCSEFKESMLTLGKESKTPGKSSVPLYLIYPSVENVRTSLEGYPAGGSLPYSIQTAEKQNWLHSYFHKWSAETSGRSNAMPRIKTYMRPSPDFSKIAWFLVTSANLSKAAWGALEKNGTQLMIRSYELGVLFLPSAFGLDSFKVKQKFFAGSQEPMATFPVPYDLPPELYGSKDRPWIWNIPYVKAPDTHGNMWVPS
T1 sequence (Q9NUW8 whole entry): as the sequence (Q9NUW8 whole entry H493R) above, with R493H counted along it

On to `CC(C)C(=O)Nc1nc2c(ncn2[C@@H]2O[C@H](CO)[C@@H](O)[C@H]2O[C@@H]2O[C@H](COC(=O)c3ccccc3)[C@@H](OC(=O)c3ccccc3)[C@H]2OC(=O)c2ccccc2)c(=O)[nH]1` [Compound 10], for which, on TDP1 [1], the “Change of fluorescence anisotropy with inhibitor concentration” value (from here on “Change … with inhibitor concentration”) is on record as “significant decrease in the anisotropy”. Moreover, at TDP1 [2], the Type of inhibition entry is recorded as “Mixed” and the inhibition constant (Ki) – broadly, the equilibrium dissociation constant of an inhibitor or competing ligand from its target – was found to be 1700 ± 400 nM. In series [3], the “Synergistic coefficient (SC) with topotecan” value (“Synergistic coefficient (SC)” below) is “less than or equal to 0.7” and the “Effect on cytotoxic effect of topotecan (in words)” value (from here on “Effect on cytotoxic effect”) is listed as “significant increase of cytotoxic effect of topotecan”. The “Synergy with topotecan (in words)” value in series [4] is “demonstrated synergy with topotecan”. At TDP1 [5], the Type of inhibition entry is on record as “Mixed” and the inhibitory constant (Ki) came out at 3100 ± 300 nM. In series [6], this compound had an IC50 above 100 µM.

In the case of `CC(C)[Si]1(C(C)C)OC[C@H]2O[C@@H](n3ccc(=O)[nH]c3=O)[C@H](O[C@@H]3O[C@H](COC(=O)c4ccccc4)[C@@H](OC(=O)c4ccccc4)[C@H]3OC(=O)c3ccccc3)[C@@H]2O[Si](C(C)C)(C(C)C)O1` [Compound 21], the “Change … with inhibitor concentration” value on TDP1 [1] is reported as “significant decrease in the anisotropy”. Also, at TDP1 [2], the Type of inhibition result is on record as “Mixed” and the Ki stood at 300 ± 200 nM. In series [3], the “Synergistic coefficient (SC)” value is “less than or equal to 0.7” and the “Effect on cytotoxic effect” value was “significant increase of cytotoxic effect of topotecan”. Further, in series [4], the “Synergy with topotecan (in words)” value was “demonstrated synergy with topotecan”. Moreover, on TDP1 [5], the Type of inhibition entry is recorded as “Mixed” and the inhibitory constant (Ki) was 400 ± 300 nM. The compound also gave an IC50 in series [6] above 100 µM.

Turning to `Cc1cn([C@H]2C[C@H](O[C@@H]3O[C@H](CO)[C@@H](O)[C@H]3O)[C@@H](CO)O2)c(=O)[nH]c1=O` [Compound 24], the IC50 in the series with PARP1 is 38 ± 4 µM. Moreover, the “Inhibitory effect on TDP1 activity (in words)” value on TDP1 [7] is “not inhibited”.

In the case of `Cc1cn([C@H]2C[C@H](O[C@@H](C=O)O[C@@H](C=O)CO)[C@@H](CO)O2)c(=O)[nH]c1=O` [Compound 29], the IC50 in the series on PARP1 was 25 ± 3 µM. The “Inhibitory effect on TDP1 activity (in words)” value on TDP1 [7] is recorded as “did not lead to the noticeable inhibitory activity”.

As to `O=C(OC[C@H]1O[C@@H](O[C@H]2C[C@H](n3cc(I)c(=O)[nH]c3=O)O[C@@H]2CO)[C@H](OC(=O)c2ccccc2)[C@@H]1OC(=O)c1ccccc1)c1ccccc1` [Compound 41], the “Change … with inhibitor concentration” value on TDP1 [1] is recorded as “anisotropy remained unchanged”. For the same compound, at TDP1 [2], the Type of inhibition result is given as “Uncompetitive” and the inhibition constant (Ki) is 600 ± 300 nM. Further, in series [3], the “Synergistic coefficient (SC)” value is “less than or equal to 0.7” and the “Effect on cytotoxic effect” value was “significant increase of cytotoxic effect of topotecan”. For the same compound, the “Synergy with topotecan (in words)” value in series [4] is given as “demonstrated synergy with topotecan”. Further, on TDP1 [5], the Type of inhibition entry is given as “Uncompetitive” and the inhibitory constant (Ki) came out at 2100 ± 500 nM. In series [6], this compound returned an IC50 above 100 µM. In addition, on TDP1 [7] (single-stranded fluorescent biosensor 50 nM, TDP1 1.5 nM, 26 °C, read-out: IC50 (half-maximal inhibitory concentration) of TDP1 activity), the IC50 worked out at 2800 ± 200 nM.

The record behind these values is PMC6136360, “Novel group of tyrosyl-DNA-phosphodiesterase 1 inhibitors based on disaccharide nucleosides as drug prototypes for anti-cancer therapy” (Journal of Enzyme Inhibition and Medicinal Chemistry, 2018).
